Results on 31 molecules are retold here after US8895585B2, “Nicotinamide derivative or salt thereof” (FUJIFILM Corporation, priority 2010, dated 2014).

One assay concerns THP-1 cells. The experiment in a line: TNFα generation assay. The format is cell-based, human. Particulars: Homo sapiens, THP-1, THP-1 cells; Table 22; read-out: IC50 in TNFα generation assay. In outline:
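THP-1 cells differentiated to macrophage-like cells with 10 ng/ml IFN-γ for 2 days, preincubated with compound 30 min at room temperature, then cultured 7 h on plates coated with human IgG (10 μg/ml). Secreted TNFα measured by ELISA or AlphaLISA.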

In assay [1] the target is T1, glutathione S-transferase (GST)-fused full-length human Syk protein (Homo sapiens, UniProt P43405).
T1 construct: (GST)-fused full-length human Syk protein; GST (glutathione S-transferase); purchased Carna Biosciences
Description: Syk enzyme assay. Format: biochemical. The following applies: Syk enzyme assay, Test Example 1; read-out: IC50 of Syk-inhibitory activity. Put shortly: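 IC50 values come from a time-resolved FRET readout (615 and 665 nm) of substrate phosphorylation, measured after an EDTA stop and 1 h antibody binding. The kinase reaction ran 40 min at room temperature with 27 μM ATP and 0.4 μM biotin-peptide, following a 15 min compound preincubation with baculovirus-made GST-full-length human Syk.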

With `NC(=O)c1cc(F)c(N[C@@H]2CCCC[C@@H]2N)nc1Nc1cncc(-c2cnn(Cc3ccccc3)c2)c1` (relative stereo) [Example 004-075, 6-(cis-2-aminocyclohexylamino)-2-((5-(1-benzyl-1H-pyrazol-4-yl)pyridin-3-yl)amino)-5-fluoronicotinamide], the results for the IC50 (in the assay on THP-1 cells; in assay [1]) were 130 to 200 nM and < 10 nM, respectively.

Turning to `NC(=O)c1cc(F)c(N[C@@H]2CCCC[C@@H]2N)nc1Nc1cc(-n2ccnn2)nc2[nH]ccc12` (relative stereo) [Example 004-068, 2-((6-(1H-1,2,3-triazol-1-yl)-1H-pyrrolo[2,3-b]pyridin-4-yl)amino)-6-(cis-2-aminocyclohexylamino)-5-fluoronicotinamide], the figures for the IC50 (with THP-1 cells; in assay [1]) were 65 to 130 nM and < 10 nM, respectively.

With `CCn1nc(C2CC2)c2cc(Nc3nc(N[C@H](CC(C)C)[C@H](C)N)c(F)cc3C(N)=O)ccc21` [Example 006-550, 6-(((2S,3R)-2-amino-5-methylhexan-3-yl)amino)-2-((3-cyclopropyl-1-ethyl-1H-indazol-5-yl)amino)-5-fluoronicotinamide], the IC50 with THP-1 cells is 130 to 200 nM; in assay [1] it was < 10 nM.

On to `COc1nn(C)c2ccc(Nc3nc(N[C@H](C4CC4)[C@H](C)N)c(F)cc3C(N)=O)cc12` [Example 006-589, 6-(((1R,2S)-2-amino-1-cyclopropylpropyl)amino)-5-fluoro-2-((3-methoxy-1-methyl-1H-indazol-5-yl)amino)nicotinamide], for which the results for the IC50 (in the assay on THP-1 cells; in assay [1]) were 65 to 130 nM and < 10 nM, respectively.

For `Cc1nn(CCF)c2ccc(Nc3nc(NC4CCCCC4N)c(F)cc3C(N)=O)cc12` (centres unmarked) [Example 002-209], the results for the IC50 (in the assay with THP-1 cells; in assay [1]) were 65 to 130 nM and < 10 nM, respectively.

In the case of `NC(=O)c1cc(F)c(NCC(N)C(F)(F)F)nc1Nc1ccc2ncccc2c1` (centres unmarked) [Example 014-016, 6-((2-amino-3,3,3-trifluoropropyl)amino)-5-fluoro-2-((quinolin-6-yl)amino)nicotinamide], the results for the IC50 (with THP-1 cells; in assay [1]) were 65 to 130 nM and < 10 nM, respectively.

Consider `NC(=O)c1cc(F)c(NC2CCCCC2N)nc1Nc1ccnc(-c2cccc(F)c2F)c1` (centres unmarked) [Example 002-144], for which the IC50 with THP-1 cells was 130 to 200 nM; in assay [1], < 10 nM.

`NC(=O)c1cc(F)c(N[C@@H]2CCCC[C@@H]2N)nc1Nc1ccc(N2CCOC2=O)nc1` [Example 006-537, 6-(((1R,2S)-2-aminocyclohexyl)amino)-5-fluoro-2-((6-(2-oxooxazolidin-3-yl)pyridin-3-yl)amino)nicotinamide]: the IC50 in the assay on THP-1 cells lay within 65 to 130 nM; in assay [1], 10 to 50 nM.

Regarding `Cc1nn(C)c2ccc(Nc3nc(N[C@H](CC(C)C)[C@H](C)N)c(F)cc3C(N)=O)cc12` [Example 006-520, 6-(((2S,3R)-2-amino-5-methylhexan-3-yl)amino)-2-((1,3-dimethyl-1H-indazol-5-yl)amino)-5-fluoronicotinamide], the IC50 was < 65 nM in the assay with THP-1 cells and < 10 nM in assay [1].

As to `N#Cc1ccc(-c2cncc(Nc3nc(NC4CCCCC4N)c(F)cc3C(N)=O)c2)cc1` (centres unmarked) [Example 002-173], the IC50 fell in the range of 130 to 200 nM in the assay on THP-1 cells and 10 to 50 nM in assay [1].

Turning to `NC(=O)c1cc(F)c(N[C@@H]2CCCC[C@@H]2N)nc1Nc1cncc(-c2cc[nH]c2)c1` (relative stereo) [Example 006-116, 2-((5-(1H-pyrrol-3-yl)pyridin-3-yl)amino)-6-((cis-2-aminocyclohexyl)amino)-5-fluoronicotinamide], the IC50 in the assay with THP-1 cells was 130 to 200 nM; in assay [1], < 10 nM.

With `NC(=O)c1cc(F)c(NC2CCCCC2N)nc1Nc1ccc(C2CC2)nc1` (centres unmarked) [Example 002-142], the IC50 is 130 to 200 nM in the assay with THP-1 cells and < 10 nM in assay [1].

Consider `NC(=O)c1cc(F)c(NC2CCCCC2N)nc1Nc1ccc2c(cnn2CC(F)F)c1` (centres unmarked) [Example 002-187], for which the results for the IC50 (in the assay on THP-1 cells; in assay [1]) were < 65 nM and < 10 nM, respectively.

As to `NC(=O)c1cc(F)c(N[C@@H]2CCCC[C@@H]2N)nc1Nc1ccc2nn(CC3CC3)cc2c1` (relative stereo) [Example 004-093, 6-(cis-2-aminocyclohexylamino)-2-((2-(cyclopropylmethyl)-2H-indazol-5-yl)amino)-5-fluoronicotinamide], the IC50 in the assay on THP-1 cells is 130 to 200 nM; in assay [1], < 10 nM.

On to `CCC[C@@H](Nc1nc(Nc2ccnc(-c3cc(OC)ccc3F)c2)c(C(N)=O)cc1F)[C@H](C)N` [Example 006-290, 6-(((2S,3R)-2-aminohexan-3-yl)amino)-5-fluoro-2-((2-(2-fluoro-5-methoxyphenyl)pyridin-4-yl)amino)nicotinamide], for which the IC50 in the assay on THP-1 cells was < 65 nM; in assay [1] it was < 10 nM.

As to `CC(C)C[C@H](CN)Nc1nc(Nc2ccnc(-n3nccn3)c2)c(C(N)=O)cc1F` [Example 006-154, (R)-2-((2-(2H-1,2,3-triazol-2-yl)pyridin-4-yl)amino)-6-((1-amino-4-methylpentan-2-yl)amino)-5-fluoronicotinamide], the IC50 with THP-1 cells is 65 to 130 nM; in assay [1], < 10 nM.

On to `CC(C)C[C@H](CN)Nc1nc(Nc2cnc3c(N)cccc3c2)c(C(N)=O)cc1F` [Example 004-196, (R)-6-((1-amino-4-methylpentan-2-yl)amino)-2-((8-aminoquinolin-3-yl)amino)-5-fluoronicotinamide], for which the IC50 in the assay on THP-1 cells was 130 to 200 nM; in assay [1], < 10 nM.

Regarding `CCC[C@@H](Nc1nc(Nc2ccc3c(cnn3CCF)c2)c(C(N)=O)cc1F)[C@H](C)N` [Example 006-417, 6-(((2S,3R)-2-aminohexan-3-yl)amino)-5-fluoro-2-((1-(2-fluoroethyl)-1H-indazol-5-yl)amino)nicotinamide], the IC50 in the assay with THP-1 cells was 65 to 130 nM; in assay [1], < 10 nM.

Regarding `NC(=O)c1cc(F)c(NC2CCCCC2N)nc1Nc1ccc2nc(OCCN3CCCC3=O)ccc2c1` (centres unmarked) [Example 002-113], the values for the IC50 (in the assay on THP-1 cells; in assay [1]) were 130 to 200 nM and < 10 nM, respectively.

`NC(=O)c1cc(F)c(N[C@@H]2CCCC[C@@H]2N)nc1Nc1cncc(-c2ccco2)c1` (relative stereo) [Example 004-058]: the IC50 in the assay with THP-1 cells was 65 to 130 nM; in assay [1], < 10 nM.

As to `Cc1nn(C)c2cc(Nc3nc(N[C@H](CC4CC4)[C@H](C)N)c(F)cc3C(N)=O)ccc12` [Example 006-485, 6-(((2R,3S)-3-amino-1-cyclopropylbutan-2-yl)amino)-2-((1,3-dimethyl-1H-indazol-6-yl)amino)-5-fluoronicotinamide], the IC50 in the assay on THP-1 cells was 65 to 130 nM; in assay [1], < 10 nM.

Regarding `C[C@H](CN)Nc1nc(Nc2ccc3ncccc3c2)c(C(N)=O)cc1F` [Example 39-3, (R)-6-((1-aminopropan-2-yl)amino)-5-fluoro-2-((quinolin-6-yl)amino)nicotinamide], the IC50 with THP-1 cells was < 65 nM; in assay [1] it was < 10 nM.

With `NC(=O)c1cc(F)c(NC2CCCCC2N)nc1Nc1cccc2nn(CC3CC3)cc12` (centres unmarked) [Example 002-032], the results for the IC50 (with THP-1 cells; in assay [1]) were 130 to 200 nM and < 10 nM, respectively.

Regarding `CCCC[C@@H](Nc1nc(Nc2cncc(C3CC3)c2)c(C(N)=O)cc1F)[C@H](C)N` [Example 006-408, 6-(((2S,3R)-2-aminoheptan-3-yl)amino)-2-((5-cyclopropylpyridin-3-yl)amino)-5-fluoronicotinamide], the IC50 was 130 to 200 nM in the assay with THP-1 cells and < 10 nM in assay [1].

Regarding `Cn1cc(-c2cncc(Nc3nc(N[C@@H]4CCCC[C@@H]4N)c(F)cc3C(N)=O)c2)cn1` (relative stereo) [Example 004-072, 6-(cis-2-aminocyclohexylamino)-5-fluoro-2-((5-(1-methyl-1H-pyrazol-4-yl)pyridin-3-yl)-amino)nicotinamide], the figures for the IC50 (in the assay on THP-1 cells; in assay [1]) were 130 to 200 nM and < 10 nM, respectively.

Take `CCC[C@@H](Nc1nc(Nc2cncc(-c3ccccc3F)c2)c(C(N)=O)cc1F)[C@H](C)N` [Example 006-222, 6-(((2S,3R)-2-aminohexan-3-yl)amino)-5-fluoro-2-((5-(2-fluorophenyl)pyridin-3-yl)amino)nicotinamide]: the IC50 in the assay on THP-1 cells was 65 to 130 nM; in assay [1], < 10 nM.

As for `NC(=O)c1cc(F)c(N[C@@H]2CCCC[C@@H]2N)nc1Nc1ccnc2c1ccn2C1CC1` [Example 004-037], the IC50 is 65 to 130 nM in the assay with THP-1 cells and < 10 nM in assay [1].

As to `COc1ncc(Nc2nc(NC3CCCCC3N)c(F)cc2C(N)=O)cc1-n1nccn1` (centres unmarked) [Example 002-155], the figures for the IC50 (in the assay on THP-1 cells; in assay [1]) were 65 to 130 nM and 10 to 50 nM, respectively.

Turning to `CCC[C@@H](Nc1nc(Nc2cncc(-c3ccccc3)c2)c(C(N)=O)cc1F)[C@H](C)N` [Example 006-247, 6-(((2S,3R)-2-aminohexan-3-yl)amino)-5-fluoro-2-((5-phenylpyridin-3-yl)amino)nicotinamide], the results for the IC50 (with THP-1 cells; in assay [1]) were 130 to 200 nM and < 10 nM, respectively.

On to `Cc1cc(Nc2nc(N[C@@H]3CCCC[C@@H]3N)c(F)cc2C(N)=O)cnc1-n1ccnn1` [Example 006-501, 6-(((1R,2S)-2-aminocyclohexyl)amino)-5-fluoro-2-((5-methyl-6-(1H-1,2,3-triazol-1-yl)pyridin-3-yl)amino)nicotinamide], for which the IC50 is 130 to 200 nM in the assay with THP-1 cells and 10 to 50 nM in assay [1].

With `NC[C@@H](CC1CC1)Nc1nc(Nc2ccc3ncccc3c2)c(C(N)=O)cc1F` [Example 006-214, (R)-6-((1-amino-3-cyclopropylpropan-2-yl)amino)-5-fluoro-2-((quinolin-6-yl)amino)nicotinamide], the IC50 is 65 to 130 nM in the assay on THP-1 cells and < 10 nM in assay [1].
